Measurements taken from patent publication US20260152777A1, “METHOD FOR PRODUCING EPIGALLOCATECHIN GALLATE MONOGLUCOSIDE” (GIVAUDAN SA, priority 2022, published 2026).

Columns and labels:
[1] = system: spontaneous formation of Advanced Glycation End-products (AGEs); experiment: Anti-glycation in tubo assay (BSA + ribose, fluorescence); format: biochemical; settings: 17 h at 37° C.; for IC50: BSA + ribose, read-out: IC50 in well (concentration which inhibits AGEs formation by half)
Method: The anti-glycation effect was evaluated using an in tubo assay to measure the spontaneous formation of Advanced Glycation End-products (AGEs). This assay was conducted on a 96-wells microplate. […] The extracts were diluted in sodium phosphate buffer (0.1 M, pH 7.4). Several dilutions were tested. Each diluted extract was run in triplicate. A standard range of aminoguanidine was used as inhibitor reference (positive control). A mixture of the sodium phosphate buffer and BSA was used to validate the experiment and a mixture of sodium phosphate buffer, BSA and ribose was used as the positive control. Two blanks were carried out for the extract: • with phosphate buffer, BSA and extract • with phosphate buffer, ribose and extract The microplate was agitated and incubated for 17 h at 37° C. The fluorescence reading was performed with ? excitation 340 nm and ? emission 420 nm. The anti-glycation activity of the extract was calculated as follows: [formula] FI: Fluorescence of tested extract; blank extract (ribose or BSA); positive control; negative control. Based on the above measurements and calculation, the IC50, i.e. the concentration of the extract which inhibits AGEs formation by half, was calculated.

[2] = Skin penetration by Raman spectroscopy (ex vivo); format: in vitro ADME, human; settings: human
Method: At the end of the incubation period, the skin explants were frozen in Optimal Cutting Temperature (OCT; VWR) at −80° C. and then cut longitudinally using a cryotome with a thickness of 20 μm. For each explant, 3 tissue sections were selected and deposited on a CaF2 support for Raman imaging analysis. The processing of corrected data maps was performed by using a software based on least squares fitting method that operates in the Matlab environment. This method involves mathematical modeling of reference spectra in the overall spectral image to determine the contribution and distribution of these spectra within the image. The reference spectra were the modelled spectra of the following products: Aglycone, glucoside mixture, 4′-O-α-monoglucoside and untreated skin control.

[3] = system: female volunteers with a dark skin type (phototype IV or more) and dull skin; experiment: Clinical evaluation on African skin: skin color by Chromameter L* parameter; format: in vivo, human; settings: cream with 0.01% of EGCG aglycone, full face twice daily, dark skin type
Method: The clinical study was carried out on 85 female volunteers aged from 19 to 47 years, which were divided in three groups: active, placebo and aglycone. The study was performed in South Africa on female volunteers with a dark skin type (phototype IV or more) and dull skin. All participants provided signed informed consent at the beginning of the study. The study was conducted according to the guidelines of the Declaration of Helsinki. […] Skin color evolution was measured after 14, 28 and 56 days using L* parameter measurement by Chromameter®.
The skin color was evaluated by means of a Chromameter CR400, which measures skin color, and the parameter L* (lightness) was recorded. The greater the value, the lighter the skin color. Depending on the test type, at least three or at least 15 readings were taken at each test sub-site for each time interval to serve as the specific pigmentation sport color measurement component of the study. Skin color was analyzed at D0, D14, D28 and D56.
For all studies in vivo, a Shapiro Wilk test was used to verify whether the raw data followed the Gaussian Law. In case of Normally-distributed data, the mean values were compared using either an unpaired or paired t student test. In case of non-Normally-distributed data, a Wilcoxon (paired) and Kruskal-Wallis test followed by a Mann-Whitney U (unpaired) test were used for paired data and unpaired data, respectively.

human skin explants = experiment: Whitening activity (ex vivo), Fontana-Masson staining for melanin quantification; format: cell-based; settings: at 2%, topical, 7 days
Method: Fresh human skin explants were obtained from skin phototype III and VI donors, aged of 46±25 years. […] Kojic acid (Sigma-Aldrich) at 2% was topically applied and incubated under the same conditions, serving as positive control. The untreated condition was treated with the vehicle (distilled water). The medium was renewed every other day. After the end of culture, the skin explants were sampled and put in formalin before being dehydrated and embedded in paraffin for Fontana-Masson staining.
Skin explants fixed in formalin were dehydrated and embedded in paraffin. Sections of 4 μm thickness were dewaxed and then stained by Fontana-Masson silver method for melanin.
Images were collected using an Axio Observer Inverted fluorescence microscope (Zeiss) in bright field mode.
Melanin was quantified using two open source optical imaging software programs. Photomicrographs (jpeg format) of Fontana-Masson tissue sections were opened in GIMP-GNU Image Manipulation Program. The brown-black color signals corresponding to melanin grains on stained sections were selected, copied and pasted into a new image and saved as a jpeg file; this jpeg file consists solely of black/brown (melanin grains) on a white background. This image was subsequently opened using the ImageJ program. The image was then inverted and the mean intensity was obtained.

[4] = system: Normal Human Epidermal Keratinocytes (NHEKs); experiment: Antioxidant activity: ROS production in keratinocytes stressed with TBP (DCFH-DA probe); format: cell-based; settings: at 200 μM
Method: A 96 wells-plate was coated with a collagen I solution at 50 μg/ml. Normal Human Epidermal Keratinocytes (NHEKs) were seeded at 20′000 cells per well with four replicates. Cells were incubated for 24 hours in complete medium (Epilife, Gibco) supplemented with Human keratinocyte growth supplements (HKGS) factor (Gibco) and 1% antibiotics (Sigma) at 37° C. with 5% CO2. […] The evolution of the fluorescence was followed for 1 hour.

For N=C(N)NN [aminoguanidine, reference compound], which IC50 [1] is on record?
Its IC50 is 326 µM.

With OCC1OC(Oc2c(O)cc(C3Oc4cc(O)cc(O)c4CC3O)cc2O)C(O)C(O)C1O (stereo not drawn) [epigallocatechin 4′-O-α-monoglucoside, Epigallocatechin 4′-O-α-monoglucoside] as the compound, how does the “bioavailability in the skin” value [2] read?
Its value is “much higher bioavailability in the skin than the respective aglycones”.

Which results are given for O=C(O[C@@H]1Cc2c(O)cc(O)cc2O[C@@H]1c1cc(O)c(O)c(O)c1)c1cc(O)c(O)c(O)c1 [EGCG aglycone, epigallocatechin gallate]?
IC50 [1]: 128 µM; Inhibition AGE's ([1]; tested concentration 0.109 mM): 31.95%; Inhibition AGE's ([1]; tested concentration 0.436 mM): 59.84%; Inhibition AGE's ([1]; tested concentration 2.180 mM): 93.56%; Inhibition AGE's ([1]; tested concentration 10.9 mM): 97.36%; L* on uneven skin tone area [3]: slight decrease of L*; global skin color whitening, 15 measurements on hemi face [3]: almost no whitening effect

For O=c1cc(CO)occ1O [Kojic acid], which “reduction of melanin content compared to untreated” value (human skin explants) is on record?
Its value is 34%.

For Oc1ccc(C=Cc2cc(O)cc(O)c2)cc1 [Resveratrol], which “reduction of ROS production” value ([4]; 24 h, NHEKs stressed with TBP 5 mM) is on record?
Its value is 61%.

What about the “ROS, Mean (% of untreated)” value ([4]; TBP column = 100, Untreated = 27.5) of the same compound?
The value was 39 % of untreated.
